Reference: patent publication US11465972B2, “Inhibitors of oxidized low-density lipoprotein receptor 1 and methods of use thereof” (United States Government as represented by the Department …, priority 2015, dated 2022)
“And” between values parts separate entries of the source, which are not always exact repeats. Equal values may be shown once.

Assays:
[1] = Liver microsomal stability, human; assay type: in vitro ADME; settings: human liver microsomes
Procedure: Metabolic stability or clearance is recognized as one of the main determinants of drug concentration in blood. The metabolic stability of Mol-5 was tested using liver microsomes form mice and humans to obtain stability ranking and intrinsic clearance.

ECs = test: Second dose response of ox-LDL uptake by ECs (lower concentrations); assay type: cell-based; settings: second dose response curve, estimated
Procedure: FIG. 6A depicts the IC50 for Mol-5. The x-axis represents Mol-5 concentration (nM) and the y-axis represents ox-LDL uptake by ECs. FIG. 6B depicts the ox-LDL uptake with Mol-5 inhibition.
For further characterization, human endothelial cells and fluorescently-labeled Dil-ox-LDL were used for measuring initiation of atherogenic process based on interaction of vascular wall with ox-LDL. Ox-LDL uptake by human umbilical vein endothelial cells (HUVECs) was measured after exposure to 200 nM of each compound using flow cytometry. […] The dose response to modulation of ox-LDL uptake by Mol-5 (0, 20, 200 and 2000 nM) was also measured in CHO cells overexpressing human LOX-1. […] A second dose response curve was conducted to narrow in on the effect of lower concentrations of Mol-5 on ox-LDL uptake (FIG. 6A). Using this information the EC50 was estimated to be […] (FIG. 6B).

human LOX-1 = human LOX-1 (Homo sapiens, UniProt P78380); test: Dil-ox-LDL uptake in CHO cells overexpressing human LOX-1; assay type: cell-based; settings: 0, 20, 200, 2000 nM, read-out: IC50, inhibition of Dil-ox-LDL uptake
Procedure: FIG. 3A, FIG. 3B, FIG. 3C and FIG. 3D depict the inhibitory effect of the lead compounds on Dil-ox-LDL uptake by HUVECs and CHO cells (measured by flow cytometry) and the effect of the lead compounds on ox-LDL-induced LOX-1 mRNA and protein expression. (FIG. 3A) (Upper Panel) Flow cytometry measurements using HUVECs in the presence of the five lead compounds (Mol-1-Mol-5), each a at 200 nM concentration. (Lower Panel) The percentage of internalized ox-LDL. Graphs show data as mean (±SD); n=4. *P<0.01 or <0.05 vs. control. (FIG. 3B) IC50 value for Mol-5. IC50 value (in nM) is based on inhibition of Dil-ox-LDL uptake in CHO cells overexpressing human LOX-1. Graphs show data as mean (±SD); n=5. *P<0.01 or <0.05 vs. control. (FIG. 3C) Western blotting assay showing LOX-1 protein expression in HUVECs following incubation with 200 nM Mol-1 to Mol-5 for 30 min, and subsequently exposure to 5 μg/mL ox-LDL for 6 hours. […]
For further characterization, human endothelial cells and fluorescently-labeled Dil-ox-LDL were used for measuring initiation of atherogenic process based on interaction of vascular wall with ox-LDL. Ox-LDL uptake by human umbilical vein endothelial cells (HUVECs) was measured after exposure to 200 nM of each compound using flow cytometry. […] The dose response to modulation of ox-LDL uptake by Mol-5 (0, 20, 200 and 2000 nM) was also measured in CHO cells overexpressing human LOX-1. […]

- half-life [1]: 55.3 ± 2.2 min
- metabolic stability (in words) [1]: reasonable stability
- microsomal CLint [1]: 25.1 ± 1 µL/min/mg
- EC50 (ECs): 64 nM
- IC50 (human LOX-1): ~200 nM and 200 nM
SMILES: Cc1cc(C)n(CC(O)COc2ccccc2)n1 (centres unmarked) [Mol-5, 1-(3,5-dimethyl-1H-pyrazol-1-yl)-3-phenoxypropan-2-ol]
